We go through two compounds from patent US20260256772A1, “BENZOTHIAZOLE COMPOUND AND USE THEREOF” (NANJING REJU THERAPEUTICS, INC., priority 2022, published 2026).

For series [1], the system named is idiopathic pulmonary fibrosis. Kind of series: Idiopathic pulmonary fibrosis animal model (bleomycin). The class given is in vivo, SD rats. To be noted: intraperitoneal (IP) 5 mg/kg, 3 consecutive weeks, FIG. 6; for pathology scores: H&E and Masson staining; for WBC: alveolar lavage fluid; for HYP: lung tissue. The protocol:
In this test example, the efficacy of the compounds of the present disclosure was tested on idiopathic pulmonary fibrosis in an idiopathic pulmonary fibrosis animal model. Briefly, anesthetized 6-week-old SD rats were fixed on a foam board with medical tape. Firstly, the skin on the surface of the trachea was cut with surgical scissors to fully expose the trachea, and a 100-microlitre micro-syringe containing a certain volume of bleomycin (BLM 5 mg/kg) solution drawn based on the body weight of the rat was inserted into the trachea through the oral cavity to administer by slow bolus injection. After administration of the BLM solution, the foam plate was immediately rotated and shaken to distribute the BLM solution as evenly as possible in the lung tissue. Then the skin on the surface of the trachea was sutured with surgical sutures and about 0.5 to 1.0 mL of penicillin solution was dripped onto the epidermis to prevent infection of the surgical wound. After the 7th day of modelling, the compound solution of the present disclosure was administered via intraperitoneal (IP) injection (5 mg/kg) according to the weight of the rat for 3 consecutive weeks. Rats were euthanized by carbon dioxide on Day 28, the lung tissues were removed, the left alveolar lavage fluid was collected for white blood cell (WBC) counting, the right lung tissue portion was used for hydroxyproline (HYP) assay, and the remaining lung tissues were stained for pathology by H&E staining and Masson staining.

The subject of a further series is Alzheimer's disease. Put plainly: Alzheimer's disease APP×PS1 transgenic mouse model. Format: in vivo. The settings on record: intraperitoneal injection, 11 consecutive weeks, twice a week, FIG. 8. The protocol: In this test example, the efficacy of the compounds of the present disclosure was tested on Alzheimer's disease in an animal model of Alzheimer's disease. Briefly, a transgenic mouse model of APP×PS1 (purchased from Cyagen Biosciences) was selected, and the compound of the present disclosure was administered by intraperitoneal injection for 11 consecutive weeks, twice a week. Alterations in amyloid in the cerebral cortex of the mice were observed.

The subject of a further series is platelets. Put plainly: Platelet toxicity test in mice (platelet count). To be noted: mice, 0.5 mg/kg single intraperitoneal injection, blood at 6 hours, FIG. 1. The class given is in vivo. How it is done:
In this test example, C57 mice were chosen to detect the effect of the target compounds on platelets.
7 to 8 weeks old […] mice were randomly divided into vehicle group and compound group. The test compound (0.5 mg/kg) or blank vehicle was administrated via single intraperitoneal injection. Blood was collected from the retroorbital venous plexus of the mice at 6 hours, and placed in a blood routine tube containing anticoagulant EDTA-K2. After shaking gently, the blood physiological indicators were measured using a hematology analyzer, with the platelet count as the target parameter for this platelet toxicity test.

In series [2] the test system is oxygen-induced retinopathy (OIR). Put plainly: Mouse model of oxygen-induced retinopathy (OIR). The class given is in vivo. To be noted: intravitreal (IVT), 1 μL of 200 μM at P12, read at P17, FIG. 3. The protocol:
The efficacy of the prodrugs RX001-RX006 as well as RX301 were investigated in a mouse model of oxygen-induced retinopathy (OIR) which to some extent indicates an in vivo model of retinopathy of prematurity (ROP), diabetic retinopathy, and wet age-related macular degeneration.
From postnatal Day 7 (P7) to Day 12 (P12), C57Bl/6 mouse pups and their CD 1 foster mothers were exposed to hyperoxia (75% 02). At P12, the animals were injected intravitreally with 1 μL of the test composition formulated in 1% DMSO, 10% Tween 80, and 20% PEG-400 (200 μM of the compound) and returned to room air until day 17 (P17). On P17, the eyeballs were enucleated, and the retinas were dissected for vascular staining. To determine the area of avascularity or angiogenesis, the retinas were flattened and stained with isolectin B4 (IB4).

For `CCN1CCN(C(=O)c2nc(N3CCc4cccc(C(=O)Nc5nc6ccccc6s5)c4C3)ccc2-c2cnn(CC34CC5CC(CC(C5)C3)C4)c2C)CC1` [RX001], in series [1], the pathology scores entry is recorded as “statistically significant improvements”, the WBC result is on record as “statistically significant improvements” and the HYP result is on record as “statistically significant improvements”. Also, the “Aβ42 pathogenic protein indicators” value in the series on Alzheimer's disease is recorded as “statistically significant improvements”.

Turning to `Cc1c(-c2ccc(N3CCc4cccc(C(=O)Nc5nc6ccccc6s5)c4C3)nc2C(=O)N2CCC(CCOP(=O)(O)O)CC2)cnn1CC12CC3CC(CC(C3)C1)C2` [RX301], the “platelet toxicity (platelet count)” value in the series with platelets was “significantly improved”. In series [2], the angiogenesis result is listed as “statistically significant improvements” and the avascular zone result is on record as “statistically significant improvements”. Besides, in series [1], the pathology scores entry was “statistically significant improvements”, the WBC result is “statistically significant improvements” and the HYP result was “statistically significant improvements”. Further, the “Aβ42 pathogenic protein indicators” value in the series with Alzheimer's disease is reported as “statistically significant improvements”.
